{
  "source": "patent US20130122091A1",
  "about": "“POLYDEOXYRIBONUCLEOTIDE-BASED COMPOSITIONS AND THEIR METHODS OF USE” (MEDESTEA INTERNAZIONALE SPA, priority 2010, published 2013)",
  "origin": "cited, not measured here",
  "key": {"[1]": {"settings": "PDRN-treated survivors, versus 2% of non-PDRN-treated survivors"}},
  "data": [
    {"substance": "polydeoxyribonucleotides [PDRNs]", "values": [
      {"measurement": "Resolution of the serious hepatic veno-occlusive disease", "setting": "[1]", "result": 42, "unit": "%"},
      {"measurement": "increase in the number of fibroblasts", "setting": "fibroblasts", "result": 35, "unit": "%"},
      {"measurement": "increase in the production of all the dermal matrix components", "setting": "fibroblasts", "result": 30, "unit": "%"}
    ]}
  ]
}
